Data as given in US6852909B2, “Process for producing female-sterile plants” (priority 1996, dated 2005).

Tests used:
plants [1] = test: Herbicidal activity, uptake, transport and deacetylation in plants; type: in vivo; conditions: for deacetylation activity in plants / uptake, transport and degradation in plants: in vivo; for herbicidal activity: plants without deacetylase gene
Source text: In this way, the above-described 2-gene system can be reduced to a 1-gene system and thereby crucially simplified, as explained in more detail below: any plants can be transformed with a Streptomycetes-derived deacetylase gene under the control of a tissue-specific promoter. Following application of N-acetylphosphinothricin or N-acetylphosphinothricin-tripeptide, the tissue-specific expression leads to the immediate death of the corresponding tissue.

Nicotiana tabacum = test: Treatment of Nicotiana tabacum plants carrying the deacetylase gene; type: in vivo; conditions: transgenic Nicotiana tabacum, killed by liberated PTC or PTT
Description: The deacetylase gene which was modified in Example 1 was transferred into A. tumefaciens LBA4404 using a two-factor cross. Nicotiana tabacum leaf disks were incubated with the resulting strains LBA4404/17.1 and LBA4404/17.2 and, after 3 days, transferred to a kanamycin-containing shoot-inducing medium. Southern hybridization can be used to test regenerating kanamycin-resistant shoots for the presence of the deacetylase gene.

wild-type plant = test: Injection of N-acetyl-PTC or N-acetyl-PTT into tobacco plants: stability, transport, effect on wild-type plant; type: in vivo
GS = conditions: E. coli with endogenous deacetylase activity
Source text: The deacetylase converts N-Ac-PTC into PTC, which then inhibits the GS in a known manner, as can be measured in a γ-glutamyltransferase assay (Bender et al., J. Bacteriol. 129, 1001-1009, 1977).

[2] = tested on: Gram-positive and Gram-negative bacteria; conditions: cited from earlier work
Botrytis cinerea = conditions: cited from earlier work
R. meliloti = test: Sensitivity of R. meliloti to PTC and PTT; type: cell-based, Rhizobium meliloti
Source text: Plasmids pIB17.1 and pIB17.2 were therefore transferred by means of a 2 factor cross into the Rhizobium meliloti strain 2011.

[3] = tested on: glutamine synthetase (GS); conditions: cited from earlier work
plants [4] = conditions: in vivo; cited from earlier work

Molecule	deacetylation activity in plants (plants [1])	uptake, transport and degradation in plants (plants [1])	herbicidal activity (plants [1])	effect on plants containing the deacetylase gene (Nicotiana tabacum)	consequences for the wild-type plant (wild-type plant)	inhibition of GS activity after adding the substance (GS)	stability and transport in the plant cell (wild-type plant; in vivo)	activity against Gram-positive and Gram-negative bacteria [2]	activity against the fungus Botrytis cinerea (Botrytis cinerea)	sensitivity of R. meliloti (R. meliloti)	inhibitor of glutamine synthetase (GS) [3]	herbicidal action (plants [4])
CC(=O)NC(CCP(C)(=O)O)C(=O)NC(C)C(=O)NC(C)C(=O)O (stereo not drawn) [N-acetyl-PTT, N-acetylphosphinothricin tripeptide]	No deacetylation activity	taken up by plants and transported and not degraded immediately	neither substance is herbicidally active	the plants are then killed	Neither of the two substances has recognizably negative consequences							
CC(=O)NC(CCP(C)(=O)O)C(=O)O (stereo not drawn) [N-acetyl-PTC, N-acetylphosphinothricin]	No deacetylation activity	taken up by plants and transported and not degraded immediately	neither substance is herbicidally active	the plants are then killed	Neither of the two substances has recognizably negative consequences	efficient inhibition of GS activity	stable in the plant cell and transported into all cells					
C[C@H](NC(=O)[C@H](C)NC(=O)[C@@H](N)CCP(C)(=O)O)C(=O)O [PTT, phosphinothricylalanylalanine]								active against Gram-positive and Gram-negative bacteria	also against the fungus Botrytis cinerea	reacts very sensitively		
2-amino-4-methylphosphinobutyric acid [PTC]										reacts very sensitively	inhibitor of glutamine synthetase	acts as a total herbicide
